# Structures can show the parent of a compound that is named as a salt.
# How the values were obtained:
# [1] = tested on: BXPC3 human pancreatic cancer cells; experiment: CellTiter Glo cell viability assay, BXPC3 cells
# Description: (§1) Two types of human tumor cells were used in this investigation: BXPC3 human pancreatic cancer cells and A2780 human ovarian cancer cells. The BXPC3 cells were originally obtained from American Type Cell Culture (ATCC). The ovarian tumor cells were gifts from Roswell Park Cancer Institute, Buffalo, N.Y. All tumor cells were maintained at 37° C. in a humidified 5% CO2 atmosphere in T75 tissue culture flasks containing 20 mL of Roswell Park Memorial Institute (RPMI) 1640 containing 2 mM L-glutamine, 10% fetal bovine serum (FBS) and 1% penicillin and streptomycin (100 IU/mL penicillin and 100 μg/mL streptomycin). The tumor cells were split at a ratio of 1:5 every 4-5 days by trypsinization and resuspended in fresh medium in a new flask. Cells were harvested for experiments at 70-90% confluency.
# (§2) CPI-613 (i.e., 6,8-bis(benzylthio)octanoic acid) stock solutions at concentrations of 8, 4, 2, 1.5 and 0.5 mM were prepared in the appropriate vehicles. The molar ratio of vehicle to CPI-613 was maintained at 8:1. The corresponding vehicle concentrations were 64, 32, 16, 12, and 4 mM respectively. A sixty-four mM aliquot of vehicle was dissolved in 10 mL of water. Next, 8 mM of CPI-613 was added and the mixture was stirred until a clear solution was obtained. […] A 5 μL aliquot of this stock solution was added to 95 μL of tumor cells in media. Upon dilution in the wells, the corresponding drug concentrations were 400, 200, 100, 75 and 25 μM respectively.
# (§3) For the sodium salt and potassium salt form of CPI-613, 1 equivalent of CPI-613 solid was dissolved in water. Sixty-two mg of CPI-613 (0.00016 mol) was added to 10 mL of water, then 165 μL of 1M NaOH or KOH was added and stirred until a clear solution was obtained. This gave a 16 mM solution. The resulting 16 mM solution was then serially diluted, thereby providing 8 mM and 4 mM solutions of the CPI-613 salt form. For the ammonium salt, vehicle to drug ratio was maintained at 8:1 and the formulation was prepared using procedures analogous to those described above in Section 2 relating to preparation of CPI-613 formulations in different vehicles.
# (§4) CPI-613 formulated in 1M triethanolamine (TEA) was used as an internal control during formulation screening. To prepare a 16 mM of working stock of CPI-613, 50 mg/mL of CPI-613 (128.66 mM of CPI-613 in 1M TEA) was diluted in complete cell culture media containing 10% FBS. That is, 310 μL of a 128.66 mM solution of CPI-613 in 1M TEA was added to 2.19 mL of cell culture media. This stock was further diluted serially in complete media to give 8 mM, 4 mM 2 mM, 1.5 mM and 0.5 mM working solutions. On the day of testing, 5 μL of this working solution was added to 95 μL of cell culture media (20 fold dilution) resulting final concentrations of 400, 200, 100, 75 and 25 μM CPI-613, respectively. The ratio of CPI-613 to TEA was maintained at 1:8 ratio at all times.
# (§5) The cell viability of CPI-613 formulations formulated at a ratio of 1:8, CPI-613 to vehicle, was assessed by exposing the A2780 ovarian tumor cells and BXPC3 human pancreatic cancer cells to the following CPI-613 concentrations: 400 μM (3200 μM vehicle), 200 μM (1600 μM vehicle), 100 μM (800 μM vehicle), 75 μM (600 μM vehicle) and 25 μM (200 μM vehicle) The impact of corresponding vehicles at 3200, 1600 and 800 μM concentrations was also tested in tumor cells for cell viability. […] CPI-613 in TEA was used as an internal control. The tumor cells were treated for 24 hrs with the test article in serum-containing medium. After 24 hrs of treatment the number of viable tumor cells was determined.
# (§6) The number of cells targeted for the study was 4×10^3 per well in 100 μL of medium. The actual number of cells were counted and seeded in the wells of a 96 well-plate. The cells were incubated for ˜24 hrs before addition of CPI-613.
# (§7) For each cell line the concentrations of test articles or vehicles specified above was used.
# [2] = tested on: BXPC3 human pancreatic cancer cells; experiment: PI/Annexin Alexa Fluor 488 staining, FACS, type of cell death; format: cell-based; details: 300 μM of CPI-613; 24 hours
# Description: Apoptotic cells will stain Annexin V positive but PI negative because the PI cannot cross the intact cell membrane. Necrotic cells will stain positive for both Annexin V and PI because the cell membrane is not intact.
# BxPC3 human pancreatic cancer cells were used in this investigation. These tumor cells were originally obtained from American Type Cell Culture (ATCC, Manassas, Va.). […] Cells were split at a ratio of 1:10 every 2-3 days by trypsinization and resuspended in fresh medium in a new flask. Cells were harvested for experiments in the same way at 70-90% confluency.
# 2) A 1 mL aliquot of each test condition was added to corresponding well. Each treatment condition was run in duplicate. Cells were incubated for 24 hours with test conditions prior to PI/Annexin Staining.
# 3) After 24 hours, cells, including floating cells, with media were harvested and centrifuged at 1,400 RPM for 5 minutes.
# 4) For all samples the supernatant was aspired off, and the pellet was resuspended in 3 mL PBS and then centrifuged again at 1,400 RPM for 5 minutes, for a total of 2 washes.
# Cells were incubated with PI/Annexin V for 8 minutes.
# 6) The reaction was stopped by adding 400 μL 1× Annexin V binding buffer.
# 7) Samples were then taken to FACS facility to be read on the FACS Scan Flow Cytometer.
# [3] = tested on: A2780 human ovarian cancer cells; experiment: CellTiter Glo cell viability assay, A2780 cells
# Description: as §1, §2, §3, §4, §5, §6, §7
# [4] = salt formulation at 200 μM, 24 hrs
# [5] = salt formulation at 400 μM, 24 hrs
smiles,measurement,setting,value
O=C(O)CCCCC(CCSCc1ccccc1)SCc1ccccc1 (stereo not drawn) [CPI-613 sodium salt],BXPC3 Cell Viability (alkali salt formulations),"[1]; CPI-613 75 μM, CPI-613 to base 1:1, 24 hrs",+ (tumor cell viability of >95%)
same,viability at 25 µM,"[1]; Homo sapiens, BXPC-3, 24 h, read-out: BXPC3 Cell Viability (alkali salt formulations), CPI-613 25 μM, CPI-613 to base 1:1",> 95%
same,viability at 100 µM,"[1]; Homo sapiens, BXPC-3, 24 h, read-out: BXPC3 Cell Viability (alkali salt formulations), CPI-613 100 μM, CPI-613 to base 1:1",70 to 95%
same,viability at 200 µM,"[1]; Homo sapiens, BXPC-3, 24 h, read-out: BXPC3 Cell Viability (alkali salt formulations), CPI-613 200 μM, CPI-613 to base 1:1",30 to 70%
same,viability at 400 µM,"[1]; Homo sapiens, BXPC-3, 24 h, read-out: BXPC3 Cell Viability (alkali salt formulations), CPI-613 400 μM, CPI-613 to base 1:1",< 10%
same,cell kill in BXPC3 cells,[1]; [4],~50%
same,cell kill in BXPC3 cells,[1]; [5],all the cells were killed
same,type of cell death (apoptosis or necrosis),[2],higher number of cells in the state of apoptotic death versus the number of cells in the state of necrotic death
same,A2780 Cell Viability (alkali salt formulations),"[3]; CPI-613 200 μM, CPI-613 to base 1:1, 24 hrs",++++ (tumor cell viability of >10% up to 30%)
same,viability at 25 µM,"[3]; Homo sapiens, A2780, 24 h, read-out: A2780 Cell Viability (alkali salt formulations), CPI-613 25 μM, CPI-613 to base 1:1",70 to 95%
same,viability at 75 µM,"[3]; Homo sapiens, A2780, 24 h, read-out: A2780 Cell Viability (alkali salt formulations), CPI-613 75 μM, CPI-613 to base 1:1",70 to 95%
same,viability at 100 µM,"[3]; Homo sapiens, A2780, 24 h, read-out: A2780 Cell Viability (alkali salt formulations), CPI-613 100 μM, CPI-613 to base 1:1",70 to 95%
same,viability at 400 µM,"[3]; Homo sapiens, A2780, 24 h, read-out: A2780 Cell Viability (alkali salt formulations), CPI-613 400 μM, CPI-613 to base 1:1",< 10%
same,cell kill in A2780 cells,[3]; [4],~65%
same,cell kill in A2780 cells,[3]; [5],all the cells were killed
